Laboratory results as given in US10906899B2, “Bicyclic fused pyrazole derivatives for the treatment of RSV” (GEORGIA STATE UNIVERSITY RESEARCH FOUNDATION, INC., priority 2016, dated 2021).
Where two headings read alike, the source gives them in different places.

Tested on: RSV
Assay: Dose-response counterscreen: luciferase reporter virus infection of BEAS-2B cells (EC50)
Type: cell-based, respiratory syncytial virus (RSV)
Details: human respiratory syncytial virus, read-out: Potency Range (EC50 values)
[1] = A series compounds, anti-RSV potency

Row | SMILES | EC50 (B series compounds) [nM] | EC50 [1] [nM]
1 | Cc1c2c(=O)n(-c3ncccn3)n(Cc3ccccc3)c2cc(=O)n1Cc1ccco1 [AVG-105] | > 20000 | 
2 | Cc1c2c(=O)n(-c3nc4ccccc4s3)n(Cc3ccccc3)c2cc(=O)n1Cc1cnc(Cl)cn1 [AVG-163] | 1000 to 10000 | 
3 | Cc1c2c(=O)n(-c3nc4ccccc4s3)n(C)c2cc(=O)n1Cc1ccc(Cl)cc1 [AVG-032] | > 20000 | 
4 | Cc1c2c(=O)n(-c3ccccn3)n(Cc3ccccc3)c2cc(=O)n1Cc1ccco1 [AVG-035] | 1000 to 10000 | 
5 | COc1cc(C2CC(=O)Nc3c2cnn3-c2nc3ccccc3s2)ccc1OC1CCCC1 (stereo not shown) [AVG-006, 1-(benzo[d]thiazol-2-yl)-4-(4-(cyclopentyloxy)-3-methoxyphenyl)-4,5-dihydro-1H-pyrazolo[3,4-b]pyridin-6(7H)-one] |  | 1000 to 10000
6 | Cc1c2c(=O)n(-c3nc4ccccc4s3)n(Cc3cccc(Cl)c3)c2cc(=O)n1Cc1cccc(Cl)n1 [AVG-174] | 1000 to 10000 | 
7 | COc1ccc(C2CC(=O)Nc3c2cnn3-c2ccccn2)cc1OC1CCCC1 (stereo not shown) [AVG-116] |  | 1000 to 10000
8 | Cc1c2c(=O)n(-c3nc4ccccc4s3)n(Cc3ccncc3)c2cc(=O)n1Cc1ccco1 [AVG-121] | 1000 to 10000 | 
9 | Cc1c2c(=O)n(-c3nc4ccccc4s3)n(Cc3ccccc3)c2cc(=O)n1Cc1ccccc1Cl [AVG-076] | 10000 to 20000 | 
10 | COc1ccc(C2CC(=O)Nc3c2cnn3-c2ccccc2)cc1OC1CCCC1 (stereo not shown) [AVG-065, 4-(3-(cyclopentyloxy)-4-methoxyphenyl)-1-phenyl-4,5-dihydro-1H-pyrazolo[3,4-b] pyridin-6(7H)-one] |  | 10000 to 20000
11 | Cc1c2c(=O)n(-c3nc4ccccc4s3)n(Cc3ccccc3)c2cc(=O)n1Cc1cccc(N2CCN(C)CC2)n1 [AVG-225] | 100 to 1000 | 
12 | Cc1c2c(=O)n(-c3ccncn3)n(Cc3ccccc3)c2cc(=O)n1Cc1ccco1 [AVG-108] | 1000 to 10000 | 
13 | Cc1c2c(=O)n(-c3nc4ccccc4s3)n(Cc3ccccc3)c2cc(=O)n1Cc1cnccn1 [AVG-093] | 100 to 1000 | 
14 | Cc1c2c(=O)n(-c3nc4ccccc4s3)n(Cc3cocn3)c2cc(=O)n1Cc1ccco1 [AVG-125] | > 20000 | 
15 | Cc1c2c(=O)n(-c3nc4ccccc4s3)n(Cc3ccccc3Cl)c2cc(=O)n1Cc1cccc(Cl)n1 [AVG-175] | 1000 to 10000 | 
16 | Cc1c2c(=O)n(-c3nc4ccccc4s3)n(Cc3ccccc3)c2cc(=O)n1Cc1ccc(Cl)cn1 [AVG-095] | 1000 to 10000 | 
17 | Cc1c2c(=O)n(-c3cnccn3)n(Cc3ccccc3)c2cc(=O)n1Cc1ccco1 [AVG-106] | 1000 to 10000 | 
18 | COc1ccc(Cn2c(C)c3c(=O)n(-c4ccccn4)n(Cc4ccccc4)c3cc2=O)cc1 [AVG-132] | 1000 to 10000 | 
19 | Cc1c2c(=O)n(-c3nc4ccccc4s3)n(Cc3ccccc3)c2cc(=O)n1Cc1nccnc1Cl [AVG-164] | > 20000 | 
20 | COc1cc(C2CC(=O)Nc3nn(-c4nc5ccccc5s4)cc32)ccc1OC1CCCC1 (stereo not shown) [AVG-006b] |  | 1000 to 10000
21 | Cc1c2c(=O)n(-c3nc4ccccc4s3)n(CC3CCNCC3)c2cc(=O)n1Cc1ccco1 [AVG-026] | 1000 to 10000 | 
22 | Cc1c2c(=O)n(-c3nc4ccccc4s3)n(Cc3ccccc3)c2cc(=O)n1Cc1ccncc1 [AVG-089] | 1000 to 10000 | 
23 | Cc1c2c(=O)n(-c3nc4ccccc4s3)n(Cc3ccccc3)c2cc(=O)n1C1CCOCC1 [AVG-043] | 10000 to 20000 | 
24 | Cc1c2c(=O)n(-c3nc4ccccc4s3)n(CC3CCCOC3)c2cc(=O)n1Cc1ccco1 (stereo not shown) [AVG-072] | 1000 to 10000 | 
25 | COc1ccc2sc(-n3c(=O)c4c(C)n(Cc5cccc(Cl)n5)c(=O)cc4n3Cc3ccccc3)nc2c1 [AVG-188] | 100 to 1000 | 

Row | SMILES | EC50 (B series compounds) [nM] | EC50 [1] [nM]
26 | Cc1c2c(=O)n(-c3nc4ccccc4s3)n(Cc3ccccc3)c2cc(=O)n1C1CCN(C)CC1 [AVG-042] | 1000 to 10000 | 
27 | Cc1c2c(=O)n(-c3ccccn3)n(Cc3ccccc3)c2cc(=O)n1Cc1ccccc1Cl [AVG-127] | 100 to 1000 | 
28 | Cc1c2c(=O)n(-c3nc4ccccc4s3)n(Cc3ccccc3)c2cc(=O)n1Cc1ccnn1C [AVG-102] | 1000 to 10000 | 
29 | Cc1c2c(=O)n(-c3nc4ccccc4s3)n(Cc3cccnc3)c2cc(=O)n1Cc1ccco1 [AVG-120] | 1000 to 10000 | 
30 | COc1ccc(Cn2c3cc(=O)n(Cc4cccc(Cl)n4)c(C)c3c(=O)n2-c2ccccn2)cc1 [AVG-233] | 10 to 100 | 
31 | COc1ccc(C2CC(=O)Nc3nn(-c4ccccn4)cc32)cc1OC1CCCC1 (stereo not shown) [AVG-117] |  | 10000 to 20000
32 | Cc1c2c(=O)n(-c3ccccn3)n(Cc3ccccc3)c2cc(=O)n1Cc1ccc(Cl)c(Cl)n1 [AVG-172] | 100 to 1000 | 
33 | Cc1c2c(=O)n(-c3nc4ccccc4s3)n(Cc3ccccc3)c2cc(=O)n1Cc1cccc(C(F)(F)F)n1 [AVG-201] | 100 to 1000 | 
34 | COc1ccccc1Cn1c2cc(=O)n(Cc3cccc(Cl)n3)c(C)c2c(=O)n1-c1nc2ccccc2s1 [AVG-176] | 100 to 1000 | 
35 | Cc1c2c(=O)n(-c3nc4ccccc4s3)n(Cc3ccccc3)c2cc(=O)n1Cc1cccc(C2CCOCC2)n1 [AVG-227] | 100 to 1000 | 
36 | Cc1cccc2sc(-n3c(=O)c4c(C)n(Cc5cccc(Cl)n5)c(=O)cc4n3Cc3ccccc3)nc12 [AVG-191] | 100 to 1000 | 
37 | COc1cc(C2CC(=O)Nc3c2c(OS(=O)(=O)C(F)(F)F)nn3-c2nc3ccccc3s2)ccc1OC1CCCC1 (stereo not shown) [AVG-257, 1-(benzo[d]thiazol-2-yl)-4-(4-(cyclopentyloxy)-3-methoxyphenyl)-6-oxo-4,5,6,7-tetrahydro-1H-pyrazolo[3,4-b]pyridin-3-yl trifluoromethanesulfonate] | 10000 to 20000 | 
38 | Cc1c2c(=O)n(-c3nc4ccccc4s3)n(Cc3ccccc3)c2cc(=O)n1Cc1nccn1C [AVG-098] | 1000 to 10000 | 
39 | Cc1c2c(=O)n(-c3nc4ccccc4s3)n(Cc3ccccc3)c2cc(=O)n1Cc1cccc(OC2CCN(C)CC2)n1 [AVG-208] | 1000 to 10000 | 
40 | Cc1c2c(=O)n(-c3cccnc3)n(Cc3ccccc3)c2cc(=O)n1Cc1ccco1 [AVG-081] | 10000 to 20000 | 
41 | Cc1c2c(=O)n(-c3nc4ccccc4s3)n(Cc3ccccc3)c2cc(=O)n1Cc1ncccc1Cl [AVG-161] | 1000 to 10000 | 
42 | Cc1c2c(=O)n(-c3nc4ccccc4s3)n(Cc3ccccc3)c2cc(=O)n1CC1CCNCC1 [AVG-038] | > 20000 | 
43 | Cc1c2c(=O)n(-c3nc4ccccc4s3)n(Cc3ccccc3)c2cc(=O)n1Cc1ncco1 [AVG-096] | 1000 to 10000 | 
44 | Cc1c2c(=O)n(-c3ccccn3)n(Cc3ccccc3)c2cc(=O)n1Cc1cccc(-c2ccccc2)n1 [AVG-229] | 100 to 1000 | 
45 | COc1cc(C2CC(=O)Nc3c2cnn3-c2ccccc2)ccc1OC1CCCC1 (stereo not shown) [AVG-066] |  | 10000 to 20000
46 | Cc1c2c(=O)n(-c3nc4ccccc4s3)n(CC(C)C)c2cc(=O)n1Cc1ccco1 [AVG-070] | 1000 to 10000 | 
47 | Cc1c2c(=O)n(-c3ccccn3)n(Cc3ccccc3)c2cc(=O)n1Cc1nccs1 [AVG-239] | 1000 to 10000 | 
48 | Cc1c2c(=O)n(-c3nc4ccccc4s3)n(Cc3ccccc3)c2cc(=O)n1Cc1cc(Cl)cc(Cl)n1 [AVG-169] | 100 to 1000 | 
49 | Cc1c2c(=O)n(-c3nc4cccnc4s3)n(Cc3ccccc3)c2cc(=O)n1Cc1cccc(Cl)n1 [AVG-198] | 100 to 1000 | 
50 | COc1ccc(Cn2ncc3c2NC(=O)CC3c2ccc(OC)c(OC3CCCC3)c2)c(OC)c1 (stereo not shown) [AVG-068, 4-(3-(cyclopentyloxy)-4-methoxyphenyl)-1-(2,4-dimethoxybenzyl)-4,5-dihydro-1H-pyrazolo[3,4-b]pyridin-6(7H)-one] |  | 1000 to 10000

Row | SMILES | EC50 (B series compounds) [nM] | EC50 [1] [nM]
51 | Cc1c2c(=O)n(-c3nc4ccccc4s3)n(Cc3ccccc3)c2cc(=O)n1CCN1CCOCC1 [AVG-028] | 1000 to 10000 | 
52 | Cc1c2c(=O)n(-c3nc4ccccc4s3)n(Cc3ccccc3)c2cc(=O)n1Cc1ccncn1 [AVG-092] | 1000 to 10000 | 
53 | Cc1c2c(=O)n(-c3nc4ccccc4s3)n(Cc3ccco3)c2cc(=O)n1Cc1ccco1 [AVG-122] | 1000 to 10000 | 
54 | Cc1c2c(=O)n(-c3nc4ccccc4s3)n(Cc3ccccc3)c2cc(=O)n1Cc1cc(Cl)ccn1 [AVG-160] | 1000 to 10000 | 
55 | Cc1c2c(=O)n(-c3nc4ccccc4s3)n(C)c2cc(=O)n1CCN1CCOCC1 [AVG-029] | > 20000 | 
56 | Cc1c2c(=O)n(-c3nc4ccccc4s3)n(Cc3ccccc3)c2cc(=O)n1Cc1cn(C)cn1 [AVG-100] | > 20000 | 
57 | Cc1c2c(=O)n(-c3nc4ccccc4s3)n(Cc3ccccc3)c2cc(=O)n1Cc1cccc(OCCN(C)C)n1 [AVG-206] | 1000 to 10000 | 
58 | Cc1c2c(=O)n(-c3nc4ccccc4s3)n(C(C)c3ccccc3)c2cc(=O)n1Cc1ccccn1 (stereo not shown) [AVG-135] | 10000 to 20000 | 
59 | Cc1c2c(=O)n(-c3nc4ccc(OC(C)C)cc4s3)n(Cc3ccccc3)c2cc(=O)n1Cc1cccc(Cl)n1 [AVG-256] | 10 to 100 | 
60 | COc1ccc(Cn2c3cc(=O)n(Cc4cccc(OC)n4)c(C)c3c(=O)n2-c2nc3ccccc3s2)cc1 [AVG-231] | 10 to 100 | 
61 | Cc1c2c(=O)n(-c3nc4ccccc4s3)n(Cc3ccccc3)c2cc(=O)n1Cc1ccc(Cl)cc1 [AVG-031] | 100 to 1000 | 
62 | Cc1c2c(=O)n(-c3nc4ccccc4s3)n(Cc3ccccc3)c2cc(=O)n1Cc1cccc(N2CCOCC2)n1 [AVG-228] | 100 to 1000 | 
63 | COc1ccc(Cn2c3cc(=O)n(Cc4cccc(Cl)n4)c(C)c3c(=O)n2-c2nc3ccccc3s2)cc1 [AVG-178] | 10 to 100 | 
64 | COc1cccc(Cn2c(C)c3c(=O)n(-c4ccccn4)n(Cc4ccccc4)c3cc2=O)c1 [AVG-134] | 100 to 1000 | 
65 | Cc1c2c(=O)n(-c3nc4cc(Cl)ccc4s3)n(Cc3ccccc3)c2cc(=O)n1Cc1cccc(Cl)n1 [AVG-184] | 1000 to 10000 | 
66 | Cc1c2c(=O)n(-c3nc4ccccc4s3)n(CC3CCCCC3)c2cc(=O)n1Cc1ccco1 [AVG-024] | 1000 to 10000 | 
67 | Cc1c2c(=O)[nH]n(Cc3ccccc3)c2cc(=O)n1Cc1ccccn1 [AVG-200] | > 20000 | 
68 | Cc1c2c(=O)n(-c3ccco3)n(Cc3ccccc3)c2cc(=O)n1Cc1ccccn1 [AVG-110] | 10000 to 20000 | 
69 | Cc1c2c(=O)n(-c3nc4ccccc4s3)n(Cc3ccccc3)c2cc(=O)n1CC1CCCO1 (stereo not shown) [AVG-074] | 10000 to 20000 | 
70 | Cc1c2c(=O)n(-c3nc4ccccc4s3)n(Cc3ccccc3)c2cc(=O)n1Cc1ccn(C)n1 [AVG-103] | 1000 to 10000 | 
71 | Cc1c2c(=O)n(-c3cccnn3)n(Cc3ccccc3)c2cc(=O)n1Cc1ccco1 [AVG-109] | 1000 to 10000 | 
72 | COc1ccc(Cn2c3cc(=O)n(Cc4cccc(OC)n4)c(C)c3c(=O)n2-c2ccccn2)cc1 [AVG-232] | 10 to 100 | 
73 | Cc1c2c(=O)n(-c3nc4ccccc4s3)[nH]c2cc(=O)n1Cc1ccco1 [AVG-022, 2-(benzo[d]thiazol-2-yl)-5-(furan-2-ylmethyl)-4-methyl-1H-pyrazolo[4,3-c]pyridine-3,6(2H, 5H)-dione] | 100 to 1000 | 
